Patent US6432655B1, “Method of obtaining compositions” (Synaptic Pharmaceutical Corporation, priority 1992, dated 2002)
Read-outs that look alike come from different tables or passages of the source.

Columns and labels:
[1] = biological target: T1, human 5-HT4B receptor (Homo sapiens, UniProt P34969); assay: cAMP formation in intact, transiently transfected Cos-7 cells; format: cell-based; settings: for activity at the clone hp78a receptor: compounds used to define the classical 5-HT4 receptor
T1 construct: The entire coding region of the human 5-HT4B receptor (1338 bp); expressed in transfected cells
T1 sequence (P34969 1-445 isoform P34969-2): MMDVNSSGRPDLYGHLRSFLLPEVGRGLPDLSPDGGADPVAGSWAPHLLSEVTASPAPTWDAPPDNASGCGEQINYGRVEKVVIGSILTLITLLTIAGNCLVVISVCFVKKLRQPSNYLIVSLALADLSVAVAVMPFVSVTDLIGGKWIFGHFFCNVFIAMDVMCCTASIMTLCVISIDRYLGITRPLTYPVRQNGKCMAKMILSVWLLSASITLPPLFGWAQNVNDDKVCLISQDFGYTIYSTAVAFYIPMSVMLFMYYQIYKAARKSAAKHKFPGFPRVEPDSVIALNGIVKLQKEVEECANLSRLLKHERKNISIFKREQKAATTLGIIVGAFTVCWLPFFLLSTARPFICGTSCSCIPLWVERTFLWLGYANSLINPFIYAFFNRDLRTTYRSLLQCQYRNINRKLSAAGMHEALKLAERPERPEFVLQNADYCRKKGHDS

[2] = biological target: T2, human 5-HT4B receptor (clone hp78a) (Homo sapiens, UniProt P34969); assay: [3H]5-HT radioligand binding to membranes of Cos-7 cells transiently expressing clone hp78a; settings: for Ki: read-out: Ki (apparent dissociation constants for clone hp78a)
T2 construct: The entire coding region of the human 5-HT4B receptor (1338 bp); expressed in transfected cells; host or cells: Cos-7 (monkey kidney), transient, plasmid hp78a/EXJ (pcEXV-5HT4B)
T2 sequence (P34969 1-445 isoform P34969-2): as above

[3] = biological target: T1, human 5-HT4B receptor; assay: cell-based; format: cell-based
[4] = tested on: 5-HT receptor present in glial membranes; settings: Fillion et al., 1980; property shared with hp78a; cited from earlier work
[5] = biological target: T3, 5-HT4B receptor (Rattus norvegicus, UniProt P32305); assay: [3H]5-CT receptor autoradiography on rat brain sections; format: binding; settings: masks: 100 nM PAPP and 160 nM (−)pindolol added together
T3 construct: from tissue; host or cells: rat brain cryostat sections (20 µm)
T3 sequence (P32305 whole entry): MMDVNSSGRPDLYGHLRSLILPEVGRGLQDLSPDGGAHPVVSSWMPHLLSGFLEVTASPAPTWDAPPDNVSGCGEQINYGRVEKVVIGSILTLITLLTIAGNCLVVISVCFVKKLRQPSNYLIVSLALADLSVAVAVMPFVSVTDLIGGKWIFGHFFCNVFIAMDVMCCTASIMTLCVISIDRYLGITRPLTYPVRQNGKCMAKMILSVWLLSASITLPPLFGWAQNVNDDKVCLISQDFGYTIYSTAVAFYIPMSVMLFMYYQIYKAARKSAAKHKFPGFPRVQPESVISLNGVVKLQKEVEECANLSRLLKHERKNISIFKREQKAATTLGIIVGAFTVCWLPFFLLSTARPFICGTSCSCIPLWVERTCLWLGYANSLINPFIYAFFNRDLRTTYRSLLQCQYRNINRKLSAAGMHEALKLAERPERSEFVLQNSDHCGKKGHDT

[6] = biological target: 5-HT receptor present in glial membranes; settings: Fillion et al., 1980; property shared with hp78a; read-out: equilibrium dissociation constant Kd; cited from earlier work
[7] = tested on: 5-HT receptors on NCB20 cells; settings: Berry-Kravis and Dawson, 1983; read-out: affinity of [3H]-5-HT; cited from earlier work
[8] = 5 nM [3H]5-HT, seven concentrations of competitor, 30 min at 37° C., mean ± S.E.M., 2-5 determinations
[9] = 30 nM competitor, 5 nM [3H]5-HT, 30 min at 37° C.
[10] = 100 nM competitor, 5 nM [3H]5-HT, 30 min at 37° C.

Compound: CN1[C@@H]2CC[C@H]1C[C@@H](OC(=O)c1c[nH]c3ccccc13)C2 [ICS 203930]
- inhibitory effect on the 5-HT response ([1]; 100 μM): weak inhibitory effect
- % INHIBITION OF 5-HT RESPONSE ([1]; 100 μM drug, cAMP response to 1 μM 5-HT): 36 ± 3.0%
- FOLD cAMP STIMULATION ([1]; 100 μM drug, relative to basal levels): 0
- activity at the clone hp78a receptor [1]: either poorly active or inactive
- PERCENT INHIBITION (displacement of specific [3H]5-HT binding) ([2]; 1000 nM competitor, 5 nM [3H]5-HT, 30 min at 37° C.): 10

Compound: O=C(c1ccc(F)cc1)C1CCN(CCn2c(=O)[nH]c3ccccc3c2=O)CC1 [Ketanserin]
- Ki [2, 8]: 1330 ± 241 nM

Compound: CN1C[C@@H](NS(=O)(=O)N(C)C)C[C@@H]2c3cccc4c3c(cn4C)C[C@H]21 [Mesulergine]
- Emax ([3]; L-M(TK-), read-out: Emax* (% 5-HT RESPONSE)): 0%
- Kb ([3]; dissociation constant of antagonist, KB = [B]/(A′/A) − 1], read-out: KB): 20 ± 1 nM

Compound: CN1C[C@H](CNC(=O)OCc2ccccc2)C[C@@H]2c3cccc4c3c(cn4C)C[C@H]21 [Metergoline]
- antagonism of the 5-HT response ([1]; 10 μM): almost completely
- FOLD cAMP STIMULATION ([1]; 10 μM drug, relative to basal levels): 0
- Ki [2, 8]: 6.4 ± 1.4 nM

Compound: CC[C@@H](CO)NC(=O)[C@@H]1C=C2c3cccc4c3c(cn4C)C[C@H]2N(C)C1 [Methysergide]
- FOLD cAMP STIMULATION [1]: 1.7 ± 0.43
- antagonism of the 5-HT response [1]: almost completely
- Ki [2]: 83 ± 5 nM
- antagonism [4]: Potent antagonism

Compound: NC[C@H](O)c1ccc(O)c(O)c1 [Norepinephrine]
- PERCENT INHIBITION (displacement of specific [3H]5-HT binding) [2, 9]: 0

Compound: Cc1cc(C(C)(C)C)c(O)c(C)c1CC1=NCCN1 [Oxymetazoline]
- PERCENT INHIBITION (displacement of specific [3H]5-HT binding) ([2]; 10 nM competitor, 5 nM [3H]5-HT, 30 min at 37° C.): 6

Compound: Nc1ccc(CCN2CCN(c3cccc(C(F)(F)F)c3)CC2)cc1 [PAPP]
- effect on [3H]5-CT binding [5]: markedly reduced
- PERCENT INHIBITION (displacement of specific [3H]5-HT binding) [2]: 21

Compound: CC(C)NCC(O)COc1cccc2ccccc12 (stereo not shown) [Propranolol]
- PERCENT INHIBITION (displacement of specific [3H]5-HT binding) [2, 10]: 0

Compound: c1ccc2nc(N3CCNCC3)ccc2c1 [Quipazine]
- PERCENT INHIBITION (displacement of specific [3H]5-HT binding) [2, 10]: 3

Compound: Cc1nc2sccn2c(=O)c1CCN1CCC(=C(c2ccc(F)cc2)c2ccc(F)cc2)CC1 [Ritanserin]
- Ki [2, 8]: 45 ± 10 nM

Compound: O=C(CCCN1CCC2(CC1)C(=O)NCN2c1ccccc1)c1ccc(F)cc1 [Spiperone]
- Ki [2, 8]: 110 ± 17 nM

Compound: O=C1NCN(c2ccccc2)C12CCN(CC1COc3ccccc3O1)CC2 (stereo not shown) [Spiroxatrine]
- PERCENT INHIBITION (displacement of specific [3H]5-HT binding) [2, 9]: 12

Compound: CNS(=O)(=O)Cc1ccc2[nH]cc(CCN(C)C)c2c1 [Sumatriptan]
- Ki [2]: 951 ± 118 nM

Compound: COC(=O)[C@@H]1[C@H]2C[C@H]3c4[nH]c5ccccc5c4CCN3C[C@@H]2CC[C@@H]1O [Yohimbine]
- Ki [2]: 2850 ± 354 nM

Compound: COc1cc(N)c(Cl)cc1C(=O)NC1CN2CCC1CC2 (stereo not shown) [Zacopride]
- activity at the clone hp78a receptor [1]: either poorly active or inactive
- Ki [2]: > 5000 nM

Compound: NCCc1c[nH]c2ccc(O)cc12 [[^3H]5-HT]
- Kd [6]: 10 nM
- Kd [7]: ~200 nM

Compound: COc1cc(N)c(Cl)cc1C(=O)NC1CCN(CCCOc2ccc(F)cc2)CC1OC (stereo not shown) [cisapride]
- activity at the clone hp78a receptor [1]: either poorly active or inactive

Compound: CCN(CC)C(=O)[C@@H]1C=C2c3cccc4[nH]cc(c34)C[C@H]2N(C)C1 [d-LSD]
- INTRINSIC ACTIVITY [3]: ANTAGONIST
- Emax* (% 5-HT RESPONSE) ([3]; normalized to the 5-HT maximal response): 0 % 5-HT RESPONSE
- PERCENT INHIBITION (displacement of specific [3H]5-HT binding) [2]: 77
